# Reference: patent US20250144067A1, “PERSONALIZED STARVATION THERAPY FOR CANCER” (Faeth Therapeutics, Inc., priority 2021, published 2025)
# Counter-ions that a name gives are not always drawn. Like-named read-outs stand apart in the source and are kept apart here.
# Experiments:
# [1] = test system: NCI-H292 lung cancer cells; assay: FDA drug screening, complete media vs cholesterol-free media without statin (TABLE 1); type: cell-based, human
# [2] = test system: NCI-H292 lung cancer cells; assay: FDA drug screening, complete media vs cholesterol-free media with simvastatin (TABLE 2); type: cell-based, human
# [3] = Complete minus Cholesterol-free, greater than 0 enhanced anti-cancer activity, about 0 neutral, below 0 antagonists
# [4] = NCI-H292 cells in cholesterol-free media without statin
# [5] = NCI-H292 cells in complete media
# [6] = NCI-H292 cells, FDA drug library screen, cholesterol-free media with simvastatin 0.04 μM
# [7] = NCI-H292 cells, FDA drug library screen, complete media
# [8] = complete media vs cholesterol-free media + simvastatin (0.04 μM), >0 enhanced anti-cancer activity, about 0 neutral, <0 antagonist
# [9] = NCI-H292 cells, cholesterol-free media without statin, FDA drug library screen
# [10] = NCI-H292 cells, complete media, FDA drug library screen
# [11] = complete vs cholesterol-free media, >0 enhanced anti-cancer activity, about 0 neutral, <0 antagonist
# [12] = complete media minus cholesterol-free media + simvastatin, >0 enhanced anti-cancer activity, about 0 neutral, <0 antagonist
# [13] = Complete minus Cholesterol-free, >0 enhanced anti-cancer activity, about 0 neutral, <0 antagonist
# [14] = NCI-H292 cells, cholesterol-free media without statin
# [15] = NCI-H292 cells, drug in cholesterol-free media with simvastatin 0.04 μM
# [16] = NCI-H292 cells, drug in complete media
# [17] = NCI-H292 cells, complete media, cell growth value in FDA drug screen
# [18] = Complete minus Cholesterol-free, greater than 0 enhanced anti-cancer activity, about 0 neutral, below 0 antagonist
# [19] = NCI-H292 cells, FDA drug library screen, cholesterol-free media without statin
compound,measurement,setting,value
CC[C@H]1OC(=O)[C@H](C)[C@@H](O[C@H]2C[C@@](C)(OC)[C@@H](O)[C@H](C)O2)[C@H](C)[C@@H](O[C@@H]2O[C@H](C)C[C@H](N(C)C)[C@H]2O)[C@](C)(OC)C[C@@H](C)C(=O)[C@H](C)[C@@H](O)[C@]1(C)O [Clarithromycin],Difference,[1]; [3],−0.74
same,Cholesterol-free,[1]; [4],1.607
same,Complete,[1]; [5],0.8616
same,Cholesterol-free media + simvastatin (0.04 μM),[2]; [6],1.214
same,Complete Media,[2]; [7],1.064
same,Difference,[2]; [8],−0.15
O=C(c1ccc(OCCN2CCCCC2)cc1)c1c(-c2ccc(O)cc2)sc2cc(O)ccc12 [Raloxifene (hydrochloride)],Cholesterol-free,[1]; [9],0.9028
same,Complete,[1]; [10],1.184
same,Difference,[1]; [11],0.28
same,Cholesterol-free media + simvastatin (0.04 μM),[2]; [6],0.3884
same,Complete Media,[2]; [7],0.7486
same,Difference,[2]; [12],0.36
c1ccc(CN(CC2=NCCN2)c2ccccc2)cc1 [Antazoline (hydrochloride)],Difference,[1]; [13],−0.24
same,Cholesterol-free,[1]; [14],1.006
same,Complete,"[1]; NCI-H292 cells, complete media",0.7704
same,Cholesterol-free media + simvastatin (0.04 μM),[2]; [15],1.401
same,Complete Media,[2]; [16],1.21
same,Difference,[2]; [8],−0.19
CCCN(CCC)S(=O)(=O)c1ccc(C(=O)O)cc1 [Probenecid],Difference,[1]; [13],−0.02
same,Cholesterol-free,[1]; [9],0.9245
same,Complete,[1]; [10],0.9089
same,Cholesterol-free media + simvastatin (0.04 μM),[2]; [15],1.512
same,Complete Media,[2]; [16],1.266
same,Difference,[2]; [8],−0.25
O=C([O-])c1ccccc1O.[Na+] [Sodium Salicylate],Cholesterol-free,[1],1.153
same,Complete,[1],0.943
same,Difference,[1],−0.21
same,Cholesterol-free media + simvastatin (0.04 μM),[2],1.29
same,Complete Media,[2],1.045
same,Difference,[2],−0.24
CC1(C)O[C@@H]2C[C@H]3[C@@H]4C[C@H](F)C5=CC(=O)C=C[C@]5(C)[C@@]4(F)[C@@H](O)C[C@]3(C)[C@]2(C(=O)CO)O1 [Fluocinolone (Acetonide)],Difference,[1]; [13],0.01
same,Cholesterol-free,[1]; [9],0.5523
same,Complete,[1]; [10],0.5617
same,Cholesterol-free media + simvastatin (0.04 μM),[2]; [15],0.6444
same,Complete Media,[2]; [16],0.4689
same,Difference,[2]; [8],−0.18
Nc1c2c(nc3ccccc13)CCCC2 [Tacrine (hydrochloride)],Cholesterol-free,[1]; [14],1.218
same,Complete,"[1]; NCI-H292 cells, complete media",0.7601
same,Difference,"[1]; complete vs cholesterol-free media, greater than 0 enhanced anti-cancer activity, about 0 neutral, below 0 antagonists",−0.46
same,Cholesterol-free media + simvastatin (0.04 μM),[2]; [6],1.139
same,Complete Media,[2]; [7],1.054
same,Difference,[2]; [8],−0.08
CC(C)OC(=O)[C@H](C)N[P@](=O)(CO[C@H](C)Cn1cnc2c(N)ncnc21)Oc1ccccc1 [Tenofovir alafenamide fumarate],Cholesterol-free,[1],0.8261
same,Complete,[1],0.7078
same,Difference,[1],−0.12
same,Cholesterol-free media + simvastatin (0.04 μM),[2],0.9223
same,Complete Media,[2],0.8712
same,Difference,[2],−0.05
CCCCCCO[C@@H](C)c1cccc(-c2csc(NC(=O)c3cc(Cl)c(/C=C(\C)C(=O)O)c(Cl)c3)n2)c1OC [Lusutrombopag],Difference,[1]; [13],−0.26
same,Cholesterol-free,[1]; [14],1.148
same,Complete,"[1]; NCI-H292 cells, complete media",0.8829
same,Cholesterol-free media + simvastatin (0.04 μM),[2]; [15],0.9436
same,Complete Media,[2]; [16],0.7827
same,Difference,[2]; [8],−0.16
CCN1CCCC(OC(=O)C(c2ccccc2)c2ccccc2)C1 (stereo not shown) [Piperidolate],Cholesterol-free,[1],1.19
same,Complete,[1],0.6819
same,Difference,[1],−0.51
same,Cholesterol-free media + simvastatin (0.04 μM),[2],0.8957
same,Complete Media,[2],1.487
same,Difference,[2],0.59
CC12CCC(CC1=O)C2(C)C (stereo not drawn) [(+)-Camphor],Cholesterol-free,[1]; [9],0.9458
same,Complete,[1]; [10],1.19
same,Difference,[1]; [11],0.24
same,Cholesterol-free media + simvastatin (0.04 μM),"[2]; NCI-H292 cells, cholesterol-free media with simvastatin 0.04 μM, cell growth value in FDA drug screen",0.9198
same,Complete Media,[2]; [17],1.05
same,Difference,[2]; [12],0.13
CC[C@H](Nc1ncnc2[nH]cnc12)c1nc2cccc(F)c2c(=O)n1-c1ccccc1 [Idelalisib],Difference,[1]; [18],−0.13
same,Cholesterol-free,[1]; [19],1.096
same,Complete,[1]; [7],0.9672
same,Cholesterol-free media + simvastatin (0.04 μM),"[2]; NCI-H292 cells, FDA library drug in cholesterol-free media with simvastatin 0.04 μM",1.507
same,Complete Media,"[2]; NCI-H292 cells, FDA library drug in complete media",1.219
same,Difference,[2]; [8],−0.29
Gadoxetate (Disodium),Difference,"[1]; Complete minus Cholesterol-free, […]",−0.26
same,Cholesterol-free,[1]; [14],1.164
same,Complete,"[1]; NCI-H292 cells, complete media",0.9023
same,Cholesterol-free media + simvastatin (0.04 μM),[2]; [6],1.553
same,Complete Media,[2]; [7],1.778
same,Difference,"[2]; complete media minus cholesterol-free media + simvastatin, […]",0.22
CC(C(=O)O)c1cccc(Oc2ccccc2)c1 (stereo not shown) [Fenoprofen (Calcium hydrate)],Difference,[1]; [13],−0.23
same,Cholesterol-free,[1]; [14],1.081
same,Complete,"[1]; NCI-H292 cells, complete media",0.8539
same,Cholesterol-free media + simvastatin (0.04 μM),[2]; [15],1.224
same,Complete Media,[2]; [16],1.032
same,Difference,[2]; [8],−0.19
CO[C@H]1C[C@H](O[C@@H]2/C(C)=C/C[C@@H]3C[C@@H](C[C@]4(CC[C@H](C)[C@@H](C5CCCCC5)O4)O3)OC(=O)[C@@H]3C=C(C)/C(=N/O)[C@H]4OC/C(=C\C=C\[C@@H]2C)[C@]43O)O[C@@H](C)[C@@H]1O [Selamectin],Cholesterol-free,[1],−0.000828
same,Complete,[1],−0.0121
same,Difference,[1],−0.01
same,Cholesterol-free media + simvastatin (0.04 μM),[2],0.0107
same,Complete Media,[2],0.03346
same,Difference,[2],0.02
CCCCc1oc2ccc(NS(C)(=O)=O)cc2c1C(=O)c1ccc(OCCCN(CCCC)CCCC)cc1 [Dronedarone (Hydrochloride)],Cholesterol-free,[1]; [9],0.4604
same,Difference,[1]; [11],0.28
same,Complete Media,[2]; [17],0.8231
same,Difference,[2]; [12],0.06
COc1cc2nc(N(C)CCCNC(=O)C3CCCO3)nc(N)c2cc1OC (stereo not shown) [Alfuzosin],Difference,[1]; [18],−0.14
same,Cholesterol-free,[1]; [19],0.9745
same,Complete,[1]; [7],0.8372
same,Cholesterol-free media + simvastatin (0.04 μM),[2]; [6],1.185
same,Complete Media,[2]; [7],1.024
same,Difference,[2]; [8],−0.16
Clc1ccccc1C(c1ccccc1)(c1ccccc1)n1ccnc1 [Clotrimazole],Difference,[1]; [3],−0.77
same,Cholesterol-free,[1]; [4],1.485
same,Complete,[1]; [5],0.7188
same,Cholesterol-free media + simvastatin (0.04 μM),[2]; [6],0.4166
same,Complete Media,[2]; [7],0.8582
same,Difference,[2]; [12],0.44
CC(=O)Oc1ccc(C(c2ccc(OC(C)=O)cc2)c2ccccn2)cc1 [Bisacodyl],Difference,[1]; [13],−0.04
same,Cholesterol-free,[1]; [9],0.799
same,Complete,[1]; [10],0.7553
same,Cholesterol-free media + simvastatin (0.04 μM),"[2]; NCI-H292 cells, cholesterol-free media with simvastatin 0.04 μM, FDA drug library screen (TABLE 2)",0.934
same,Complete Media,"[2]; NCI-H292 cells, complete media, FDA drug library screen (TABLE 2)",0.9483
same,Difference,"[2]; complete media minus cholesterol-free media + simvastatin (0.04 μM), >0 enhanced anti-cancer activity, about 0 neutral, <0 antagonist",0.01
COc1ccc2[nH]cc(CCNC(C)=O)c2c1 [Melatonin],Difference,[1]; [13],0.05
same,Cholesterol-free,[1]; [9],0.9489
same,Complete,[1]; [10],0.9969
same,Cholesterol-free media + simvastatin (0.04 μM),[2]; [6],1.501
same,Complete Media,[2]; [7],1.753
same,Difference,[2]; [12],0.25
CC1(S(=O)(=O)[O-])CC(=O)c2ccccc2C1=O.[Na+] (stereo not shown) [Menadione bisulfite (sodium)],Difference,[1]; [13],0.03
same,Cholesterol-free,[1]; [9],1.466
same,Complete,[1]; [10],1.492
same,Cholesterol-free media + simvastatin (0.04 μM),[2]; [15],0.991
same,Complete Media,[2]; [16],0.8295
same,Difference,[2]; [8],−0.16
N[C@@H](CCC(=O)O)C(=O)O [(S)-Glutamic acid],Cholesterol-free,[1]; [9],1.299
same,Complete,[1]; [10],1.635
same,Difference,"[1]; complete vs cholesterol-free media, […]",0.34
same,Cholesterol-free media + simvastatin (0.04 μM),[2]; [6],0.9378
same,Complete Media,[2]; [7],0.8445
same,Difference,"[2]; complete media vs cholesterol-free media + simvastatin (0.04 μM), […]",−0.09
